Laboratory results: patent US20040087498A1, “Modified factor VII” (Novo Nordisk Health Care AG, priority 1991, published 2004)
Several values for one entry are separate records, joined by “and”; a condition that tells them apart may be missing. Equal values may be shown once.

Legend:
[1] = system: rabbit plasma; assay: Prothrombin time in plasma of balloon angioplasty rabbits; format: in vivo; settings: for Clotting Time (prothrombin time), individual animals: listed as DEGR-FVIIa
Experimental: The test drug delivery for the animals consisted of an initial bolus injection immediately prior to balloon angioplasty, followed by a continuous systemic infusion by osmotic pump via the internal jugular vein. The duration of the drug infusion was 3 days. The control animals received heparin, 150 U/kg IV bolus, prior to balloon angioplasty followed by saline infusion. The DEGR-FVIIa treated animals received a 1 mg/kg bolus injection followed by 50 μg/kg/hr infusion.
Prothrombin time and concentration of DEGR-FVIIa in the blood were determined at immediately pre-bolus injection of the test compound, 1 hr post bolus injection, and at 3 days at the end of continuous infusion. One to two mls of citrated plasma was obtained and the prothrombin times and antigen levels determined.
A standard clotting assay was used to monitor the prothrombin time in the control and DEGR-FVIIa-treated animals as follows. Twenty-five microliters of test rabbit plasma, collected with sodium citrate as anticoagulant, was added to 150 μl of TBS (20 mM Tris, pH 7.4, 150 mM NaCl). The samples were mixed and added to an Electra 800 Automated Coagulation Timer (Medical Laboratories Automation, Pleasantville, N.Y.). After incubation, 200 μl of thromboplastin preparation (Sigma Chemical) containing 25 mM CaCl2 was added to the plasma preparations. A concentration of thromboplastin that gave a clotting time of approximately 20 seconds in the control rabbit plasma was selected.

[2] = system: intimal lesion development in femoral arteries; assay: Morphometry of intima and media after balloon angioplasty in atherosclerotic rabbits; format: in vivo; settings: rabbit femoral artery, three weeks post-angioplasty; 1 mg/kg bolus + 50 μg/kg/hr for 3 days
Experimental: DEGR-FVIIa was evaluated for its ability to modulate lesion development following balloon angioplasty in New Zealand White (NZW) atherosclerotic rabbits. This animal model has been well characterized and has proven to be a good model for evaluating anti-thrombotic compounds on vascular lesion development (Gimple et al., Circulation 86:1536-1546 (1992), and Rogosta et al., Circulation 89:1262-1271 (1994)). The animal model used to evaluate DEGR-FVIIa is essentially as described by Ragosta, ibid.
Anesthesia was induced in rabbits with 5 mg/kg xylazine and 35 mg/kg ketamine by intramuscular injection. The proximal femoral arteries were exposed by cutdown below the inguinal ligament with proximal and distal ligatures. The isolated segments were cannulated with 27 gauge needles. A vent was created by needle puncture. The isolated segments were flushed with saline to clear residual blood, and desiccated by air infused at a rate of 80 ml/min for 8 minutes. Following air-drying, the isolated segments were again flushed with saline and the ligatures removed. Hemostasis was maintained with non-occlusive local pressure. The segments were demarcated with metal clips. Local spasm was treated with Xylocaine 1% locally. The day following surgery, the animals were placed on 1% cholesterol and 6% peanut oil diet for one month until balloon angioplasty. […]

[3] = system: gram-negative bacteremia; assay: Survival of treated baboons; format: in vivo, baboon

“DEGR-Factor VIIa: Recombinant human Factor VIIa with its active site derivatized by Dansyl-L-Glu-Gly-Arg-chloromethyl Ketone (DEGRck)” was tested, and the “Plasma clotting time, Mean” value ([1]; 1 Hr POST ANGIO) was 40.8, the “Plasma clotting time, Mean” value ([1]; 3 Days POST ANGIO) was 21.06 and the “Clotting Time (prothrombin time), individual animals” value (“Clotting Time (prothrombin time)” for short) ([1]; 1 hour after 1 mg/kg bolus, 50 μg/kg/hr infusion) was 40.1 s and 34 s and 50 s and 33.3 s and 45.8 s and 41.6 s. The “Clotting Time (prothrombin time)” value ([1]; 3 days, end of 50 μg/kg/hr infusion) was 18.3 s and 20.9 s and 21.7 s and 21 s and 21.2 s and 21.9 s and 22.4 s, the “Plasma clotting time, Mean” value ([1]; PRE-BLEED) was 23.2 and the “Clotting Time (prothrombin time)” value ([1]; Pretreatment (pre-bolus)) was 22.5 s and 24.3 s and 24.7 s and 23.6 s and 20.6 s and 23.5 s. For the same substance, the Intima [2] was 0.438 mm2, the Media [2] was 0.329 mm2 and the survival [3] was “prolong survival of treated animals”.
